Data published in PubChem BioAssay AID2060493 (Molecular Pharmacology Branch, DTP, NCI, 2025).
pIC50: −log10 of the molar value. Each block holds one compound with its values, some of them ahead of it.

System: 616215-338-R-J1-PDC tumor spheroids, viability
Experiment: Anticancer human tumor 616215-338-R-J1-PDC patient-derived colon adenocarcinoma cell line growth inhibition [GQUAD]
Conditions: spheroids with HUVEC and MSC; for pIC50: curve of first compound; for viability, T/C: stronger effect = lower value
How it was run: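 Tumor cells were grown as complex spheroids with HUVEC endothelial cells and mesenchymal stem cells as stroma. G-quadruplex stabilizers were combined with targeted agents over half-log dilutions from near the clinical Cmax, or from 10 microM.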

[1] = second compound 0.0316 µM, first compound 0.0316 µM
[2] = second compound 0.0316 µM, first compound 0.1 µM
[3] = second compound 0.0316 µM, first compound 0.316 µM
[4] = second compound 0.0316 µM, first compound 1 µM
[5] = second compound 0.0316 µM, first compound 3.16 µM
[6] = second compound 0.0316 µM, first compound 10 µM
[7] = second compound 0.1 µM, first compound 0.0316 µM
[8] = second compound 0.1 µM, first compound 0.1 µM
[9] = second compound 0.1 µM, first compound 0.316 µM
[10] = second compound 0.1 µM, first compound 1 µM
[11] = second compound 0.1 µM, first compound 3.16 µM
[12] = second compound 0.1 µM, first compound 10 µM
[13] = second compound 0.316 µM, first compound 0.0316 µM
[14] = second compound 0.316 µM, first compound 0.1 µM
[15] = second compound 0.316 µM, first compound 0.316 µM
[16] = second compound 0.316 µM, first compound 1 µM
[17] = second compound 0.316 µM, first compound 3.16 µM
[18] = second compound 0.316 µM, first compound 10 µM
[19] = second compound 1 µM, first compound 0.0316 µM
[20] = second compound 1 µM, first compound 0.1 µM
[21] = second compound 1 µM, first compound 0.316 µM
[22] = second compound 1 µM, first compound 1 µM
[23] = second compound 1 µM, first compound 3.16 µM
[24] = second compound 1 µM, first compound 10 µM
[25] = second compound 3.16 µM, first compound 0.0316 µM
[26] = second compound 3.16 µM, first compound 0.1 µM
[27] = second compound 3.16 µM, first compound 0.316 µM
[28] = second compound 3.16 µM, first compound 1 µM
[29] = second compound 3.16 µM, first compound 3.16 µM
[30] = second compound 3.16 µM, first compound 10 µM
[31] = second compound 10 µM, first compound 0.0316 µM
[32] = second compound 10 µM, first compound 0.1 µM
[33] = second compound 10 µM, first compound 0.316 µM
[34] = second compound 10 µM, first compound 1 µM
[35] = second compound 10 µM, first compound 3.16 µM
[36] = second compound 10 µM, first compound 10 µM
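Also: spheroids exposed to agents for 7 days before readout.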
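For viability, T/C in this document: percent viability relative to DMSO vehicle control wells taken as 100%.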

Structure (SMILES): CC1COCCN1c1cc(C2(S(C)(=N)=O)CC2)nc(-c2ccnc3[nH]ccc23)n1 (stereo unspecified) + Cc1[nH]c2ccc(F)cc2c1-c1nc2c3cccnc3c3ncccc3c2[nH]1
- pIC50 (second compound 0.0316 µM): 5.03
- pIC50 (second compound 0.1 µM): 5.20
- pIC50 (second compound 0.316 µM): 5.15
- pIC50 (second compound 1 µM): 5.15
- pIC50 (second compound 3.16 µM): 5.22
- pIC50 (second compound 10 µM): 5.24
- viability, T/C [1]: 109%
- viability, T/C [2]: 108%
- viability, T/C [3]: 104%
- viability, T/C [4]: 96.1%
- viability, T/C [5]: 81.5%
- viability, T/C [6]: 47.2%
- viability, T/C [7]: 105%
- viability, T/C [8]: 116%
- viability, T/C [9]: 104%
- viability, T/C [10]: 110%
- viability, T/C [11]: 69.2%
- viability, T/C [12]: 37.6%
- viability, T/C [13]: 92.6%
- viability, T/C [14]: 110%
- viability, T/C [15]: 99.8%
- viability, T/C [16]: 101%
- viability, T/C [17]: 69.7%
- viability, T/C [18]: 41.3%
- viability, T/C [19]: 90.7%
- viability, T/C [20]: 110%
- viability, T/C [21]: 102%
- viability, T/C [22]: 95.5%
- viability, T/C [23]: 81.5%
- viability, T/C [24]: 36.1%
- viability, T/C [25]: 107%
- viability, T/C [26]: 93.6%
- viability, T/C [27]: 92.2%
- viability, T/C [28]: 98.7%
- viability, T/C [29]: 69.5%
- viability, T/C [30]: 35%
- viability, T/C [31]: 119%
- viability, T/C [32]: 105%
- viability, T/C [33]: 93.3%
- viability, T/C [34]: 95.1%
- viability, T/C [35]: 68.4%
- viability, T/C [36]: 32.5%

- pIC50 (second compound 0.0316 µM): 6.10
- pIC50 (second compound 0.1 µM): 6.11
- pIC50 (second compound 0.316 µM): > 7.50
- pIC50 (second compound 1 µM): > 7.50
- pIC50 (second compound 3.16 µM): > 7.50
- pIC50 (second compound 10 µM): > 7.50
Structure (SMILES): COc1ccc([C@@H](O)c2cc(-c3ncnc4cc(N5CCOCC5)ccc34)c(F)cc2Cl)nn1 + Cc1cnc(CNC(=O)c2c(=O)c3ccc(N4CCCN(C)CC4)nc3n3c2sc2ccccc23)cn1
- viability, T/C [1]: 102%
- viability, T/C [2]: 92.4%
- viability, T/C [3]: 93.9%
- viability, T/C [4]: 39.3%
- viability, T/C [5]: 30.1%
- viability, T/C [6]: 25.3%
- viability, T/C [7]: 59.2%
- viability, T/C [8]: 74.2%
- viability, T/C [9]: 61.2%
- viability, T/C [10]: 42.2%
- viability, T/C [11]: 39.9%
- viability, T/C [12]: 24.6%
- viability, T/C [13]: 43.6%
- viability, T/C [14]: 46.8%
- viability, T/C [15]: 43%
- viability, T/C [16]: 27.9%
- viability, T/C [17]: 26.4%
- viability, T/C [18]: 14.6%
- viability, T/C [19]: 25.3%
- viability, T/C [20]: 28.6%
- viability, T/C [21]: 30.5%
- viability, T/C [22]: 21.8%
- viability, T/C [23]: 22.8%
- viability, T/C [24]: 7.7%
- viability, T/C [25]: 23.1%
- viability, T/C [26]: 26.9%
- viability, T/C [27]: 30.1%
- viability, T/C [28]: 25%
- viability, T/C [29]: 15.9%
- viability, T/C [30]: 3.64%
- viability, T/C [31]: 33.8%
- viability, T/C [32]: 25.8%
- viability, T/C [33]: 32.3%
- viability, T/C [34]: 20%
- viability, T/C [35]: 15.4%
- viability, T/C [36]: 3.43%

Structure (SMILES): O=C(NO)c1cnc(N2CCN(S(=O)(=O)c3ccc4ccccc4c3)CC2)nc1 + Cc1[nH]c2ccc(F)cc2c1-c1nc2c3cccnc3c3ncccc3c2[nH]1
- pIC50 (second compound 0.0316 µM): 6.39
- pIC50 (second compound 0.1 µM): 6.46
- pIC50 (second compound 0.316 µM): 6.33
- pIC50 (second compound 1 µM): 6.43
- pIC50 (second compound 3.16 µM): 6.49
- pIC50 (second compound 10 µM): 6.37
- viability, T/C [1]: 96.2%
- viability, T/C [2]: 94%
- viability, T/C [3]: 62%
- viability, T/C [4]: 6.64%
- viability, T/C [5]: 0.1%
- viability, T/C [6]: 0.12%
- viability, T/C [7]: 98.6%
- viability, T/C [8]: 94.8%
- viability, T/C [9]: 53.8%
- viability, T/C [10]: 1.07%
- viability, T/C [11]: 0.04%
- viability, T/C [12]: 0.07%
- viability, T/C [13]: 117%
- viability, T/C [14]: 110%
- viability, T/C [15]: 74.5%
- viability, T/C [16]: 1.02%
- viability, T/C [17]: 0.02%
- viability, T/C [18]: 0.05%
- viability, T/C [19]: 103%
- viability, T/C [20]: 94.6%
- viability, T/C [21]: 57.6%
- viability, T/C [22]: 4.76%
- viability, T/C [23]: 0.03%
- viability, T/C [24]: 0.06%
- viability, T/C [25]: 104%
- viability, T/C [26]: 96.9%
- viability, T/C [27]: 51.4%
- viability, T/C [28]: 2.81%
- viability, T/C [29]: 0.06%
- viability, T/C [30]: 0.08%
- viability, T/C [31]: 103%
- viability, T/C [32]: 94.6%
- viability, T/C [33]: 65.7%
- viability, T/C [34]: 3.03%
- viability, T/C [35]: 0.15%
- viability, T/C [36]: 0.63%
